One data set has as its system MDSCs and T cells. The experiment in a line: T cell proliferation in a co-culture model of MDSCs and T cells (flow cytometry). Type of data set: cell-based, mice. The conditions noted are these: MDSCs treated with 1 µM compound for 12 h, 48 h co-culture with T cells (1:1), compared to the control group. On the procedure: Under sterile conditions, the tibia was removed, both ends of the bone were cut, and bone marrow was repeatedly flushed into a 15 mL centrifuge tube using a 1 mL syringe filled with culture medium. Centrifuge at 1600 rpm for 5 min to collect bone marrow cells. […] The spleen cell suspension was then transferred into a 15 mL centrifuge tube. Centrifuge at 1600 rpm for 5 min to collect T cells. Wash twice with 1×PBS. Resuspend the centrifuged T cells in 1 mL PBS and add 1 mL of 10 µM CFDA-SE solution. Incubate at room temperature for 8 min. […] After drug administration, collect MDSC cells into centrifuge tubes. Centrifuge at 1600 rpm for 5 min, remove supernatant, resuspend in 1 mL fresh medium, and plate. Add 1 mL stimulated activated T cells (1:1 ratio) for 48 h co-culture. After incubation, collect cells into centrifuge tubes, wash twice with PBS, and incubate with Fc antibody at room temperature in the dark for 10 min. Add CD3-labeled flow cytometry antibody and incubate at 4 °C in the dark for 30 min. After incubation, wash cells with PBS, resuspend in 300 µL PBS, and analyze by flow cytometry.
Background: A flow cytometer gives signals particle by particle.

Data set [1] can be described thus: Water solubility testing of compounds (HPLC). The conditions noted are these: deionized water, 37 °C water bath.
Data set [2] in a line: Conversion rate of salt-form prodrugs to parent compound in HEPES buffer solution. Type of data set: physicochemical. Particulars: conversion to Compound 1, HEPES buffer pH 7.4, 37 °C. On the procedure: Adjust the pH to 7.4 using 0.5 M NaOH, then dilute to a final volume 100 mL with distilled water.
(§1) Sample Analysis: Dissolve 0.6 mg of the compound in 250 µl of deionized water separately. Add 250 µl of mouse serum or HEPES 7.4 solution to the sample, incubate at a constant temperature of 37 °C, and collect samples at different time points. Pipette 20 µl of the sample to an EP tube, add 60 µl of methanol, vortex to mix thoroughly, and centrifuge at 12,000 rpm at 4 °C for 10 min. At 1 h, 2 h, 4 h, 8 h, and 12 h respectively, collect the supernatant for HPLC analysis. Inject 10 µL of sample and record the corresponding peak areas.

Data set [3] is described as follows: Conversion rate of salt-form prodrugs to parent compound in mouse plasma. Type of data set: in vitro ADME. The conditions noted are these: conversion to Compound 1, mouse plasma, 37 °C. How it is done:
Pharmaceutically acceptable salts of guaiane-type sesquiterpene lactone derivatives were selected and evaluated for their conversion rates to Compound 1 and Compound 83 in plasma and HEPES buffer, with results shown in Tables 2-1, 2-2, 3-1, and 3-2.
Plasma Preparation: Collect mouse plasma into an EP tube pre-loaded with sodium heparin, centrifuge at 8000 rpm for 10 minutes at 4°C, and then collect the supernatant.
as §1, with “areas. Chromatographic conditions: Hanbang C18 column (4.6 × 250 mm, 5 µm); mobile phase: acetonitrile: […] ammonium formate solution = 60:40; flow rate 1.0 mL/min; detection wavelength 210 nm; column temperature 30 °C. [drawing 171] Table 2-1. Conversion Rate of Compounds 20-42 to Compound 1 at Different Time Points in HEPES Buffer Solution” for “areas.”

In data set [4] the test system is renal injury markers (Ngal, Havcr1), inflammatory cytokines (TNF, IL-6, IL-1), fibrosis-related factors (α-Sma, Col1a1, Tgfb1). The experiment in a line: Folic acid acute kidney injury model in mice: Q-PCR of kidney tissue. Type of data set: in vivo, C57BL/6 mice. The conditions noted are these: kidney mRNA, acute model (FA).
The test system of data set [5] is chronic kidney injury induced by unilateral ureteral ligation. The experiment in a line: Unilateral ureteral ligation (UUO) chronic kidney injury model in mice: Scr and BUN. Format: in vivo, C57BL/6 mice. The conditions noted are these: serum, 14 days.

Consider `C=C1C(=O)O[C@H]2[C@H]1CCC(C)=C1CC[C@@](C)(OC(=O)NCCN3CCOCC3)[C@@H]12` [compound 98], for which, in the data set on MDSCs and T cells, the “T-cell proliferation rate (%)” value is on record as “+ (T-cell proliferation rate within the 0-20% range compared to the control group)”. In addition, the Water-solubility in data set [1] was determined as 202500 µg/mL.

As for `CCOC(=O)[C@@H]1CCCN1C[C@@H]1C(=O)O[C@H]2[C@H]1CC[C@@]1(C)C[C@]13CC[C@@](C)(O)[C@H]23` [compound 4], the “T-cell proliferation rate (%)” value in the data set with MDSCs and T cells is listed as “++ (T-cell proliferation rate within the 20-40% range compared to the control group)”. The compound further came in with a Water-solubility in data set [1] of 822 µg/mL.

As for `C[C@@]12CC[C@@H]3[C@H](OC(=O)[C@H]3CN3CCC4(CC3)CC4)[C@@H]3[C@]1(CC[C@@]3(C)O)C2` [compound 18], the Water-solubility in data set [1] was found to be 584 µg/mL.

As to `C[C@@]12CC[C@@H]3[C@H](OC(=O)[C@H]3CN3CCNCC3)[C@@H]3[C@]1(CC[C@@]3(C)O)C2` [compound 7], the Water-solubility in data set [1] was 1488 µg/mL.

On to `C[C@@]12CC[C@@H]3[C@H](OC(=O)[C@H]3CN3CC4CCCC4C3)[C@@H]3[C@]1(CC[C@@]3(C)O)C2` (stereo partly drawn) [compound 13], for which the Water-solubility in data set [1] stood at 419 µg/mL.

On to `C[C@@]12CC[C@@H]3[C@H](OC(=O)[C@H]3CN3CCCCCCC3)[C@@H]3[C@]1(CC[C@@]3(C)O)C2` [compound 19], for which the Water-solubility in data set [1] was 623 µg/mL.

Take `CCCCN(CCCC)C[C@@H]1C(=O)O[C@H]2[C@H]1CC[C@@]1(C)C[C@]13CC[C@@](C)(O)[C@H]23` [compound 11]: in data set [1], the Water-solubility is 682 µg/mL.

Compound `C[C@@]12CC[C@@H]3[C@H](OC(=O)[C@H]3CN3CCC4(CCCC4)CC3)[C@@H]3[C@]1(CC[C@@]3(C)O)C2` [compound 15] showed a Water-solubility in data set [1] of 310 µg/mL.

Consider `CN(C)C[C@@H]1C(=O)O[C@H]2[C@H]1CC[C@@]1(C)C[C@]13CC[C@@](C)(O)[C@H]23` [compound 21], for which the Release rate in data set [2] (1 h) is reported as 3.3%; in data set [2] (2 h), 10.2%; in data set [2] (4 h) it was 18.1%; in data set [2] (8 h), 38.9%; in data set [2] (12 h) it was 51.9%; in data set [3] (1 h), 5.4%. In addition, the Release rate in data set [3] (2 h) is 10.7%; in data set [3] (4 h) it was 17.9%; in data set [3] (8 h), 39.3%; in data set [3] (12 h) it was 55.4%. For the same compound, the α-Sma was 1.80±0.42 in data set [4] (oral 0.1 mg/kg) and 0.90±0.21 in data set [4] (oral 1 mg/kg, 1 mg/kg). In addition, the BUN in data set [5] (oral gavage 0.1 mg/kg) is reported as 17.63±1.13; in data set [5] (oral gavage 1 mg/kg, 1 mg/kg), 9.45±1.55. The Scr was 157.79±21.92 in data set [5] (oral gavage 0.1 mg/kg) and 79.87±13.44 in data set [5] (oral gavage 1 mg/kg, 1 mg/kg).

Turning to `CCCN(CCC)C[C@@H]1C(=O)O[C@H]2[C@H]1CC[C@@]1(C)C[C@]13CC[C@@](C)(O)[C@H]23` [compound 10], the Water-solubility in data set [1] came to 715 µg/mL.
